This passage reports IC50 results from patent US20250179103A1, “6-OXODECAHYDROPYRROLO[1,2-A][1,5]DIAZOCINE AND 6-OXODECAHYDRO-4H-PYRROLO[2,1-D][1,5]THIAZOCINE DERIVATIVES AS STAT3 AND STAT6 MODULATORS FOR THE TREATMENT OF CANCER AND INFLAMMATORY CONDITIONS” (Recludix Pharma, Inc., priority 2022, published 2025).

Test [1] concerns the target T1, Recombinant STAT3 protein (STAT3(G127-I722)) (Homo sapiens, UniProt P40763).
T1 construct: Recombinant STAT3 protein (STAT3(G127-I722))
Nature of the test: STAT3 Fluorescence Polarization (FP) Assay. The conditions noted are these: STAT3(G127-I722) 25 nM, probe 5-FAM-GpYLPQTV-NH2 2 nM, 45-minute incubation. The class given is binding. In short, it runs like this:
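Fluorescence polarization after a 45-min room-temperature incubation measured compound displacement of a 2 nM fluorescein-labelled phosphotyrosine peptide (5-FAM-GpYLPQTV-NH2) from 25 nM recombinant STAT3(G127-I722). Buffer was 10 mM HEPES pH 7.4 with 1% DMSO final. IC50s were fitted by nonlinear regression of mP against log concentration.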

For test [2], the target named is T2, Recombinant STAT6 protein (STAT6(W123-T658)) (Homo sapiens, UniProt P42226).
T2 construct: Recombinant STAT6 protein (STAT6(W123-T658))
T2 sequence (P42226 123-658): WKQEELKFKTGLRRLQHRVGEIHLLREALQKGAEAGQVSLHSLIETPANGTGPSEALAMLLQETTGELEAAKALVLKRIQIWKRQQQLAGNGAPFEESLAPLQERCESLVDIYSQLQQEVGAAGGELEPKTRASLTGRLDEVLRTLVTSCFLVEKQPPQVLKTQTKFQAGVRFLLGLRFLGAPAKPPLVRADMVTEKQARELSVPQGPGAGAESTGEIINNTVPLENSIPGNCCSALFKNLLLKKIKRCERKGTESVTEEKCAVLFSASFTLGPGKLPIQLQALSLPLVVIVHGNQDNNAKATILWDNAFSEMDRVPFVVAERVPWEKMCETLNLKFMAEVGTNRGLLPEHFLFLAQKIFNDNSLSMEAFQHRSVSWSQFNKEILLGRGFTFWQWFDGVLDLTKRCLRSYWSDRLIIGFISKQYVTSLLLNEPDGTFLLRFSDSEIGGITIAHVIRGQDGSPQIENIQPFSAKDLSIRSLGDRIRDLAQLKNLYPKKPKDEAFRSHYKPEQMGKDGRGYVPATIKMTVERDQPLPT
As to the kind of experiment: STAT6 Fluorescence Polarization (FP) Assay. The class given is binding. The conditions noted are these: STAT6(W123-T658) 250 nM, probe 5-FAM-ApYKPFQDLI-NH2 2 nM, 45-minute incubation. In short, it runs like this: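 Displacement of a fluorescent phosphotyrosine peptide (5-FAM-ApYKPFQDLI-NH2, 2 nM) from STAT6(W123-T658) (250 nM), 1% DMSO, pH 7.4 HEPES buffer. After 45 min at room temperature, polarization (mP) was plotted versus log compound concentration and fitted by nonlinear regression to give IC50.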

T1 sequence (P40763 127-722): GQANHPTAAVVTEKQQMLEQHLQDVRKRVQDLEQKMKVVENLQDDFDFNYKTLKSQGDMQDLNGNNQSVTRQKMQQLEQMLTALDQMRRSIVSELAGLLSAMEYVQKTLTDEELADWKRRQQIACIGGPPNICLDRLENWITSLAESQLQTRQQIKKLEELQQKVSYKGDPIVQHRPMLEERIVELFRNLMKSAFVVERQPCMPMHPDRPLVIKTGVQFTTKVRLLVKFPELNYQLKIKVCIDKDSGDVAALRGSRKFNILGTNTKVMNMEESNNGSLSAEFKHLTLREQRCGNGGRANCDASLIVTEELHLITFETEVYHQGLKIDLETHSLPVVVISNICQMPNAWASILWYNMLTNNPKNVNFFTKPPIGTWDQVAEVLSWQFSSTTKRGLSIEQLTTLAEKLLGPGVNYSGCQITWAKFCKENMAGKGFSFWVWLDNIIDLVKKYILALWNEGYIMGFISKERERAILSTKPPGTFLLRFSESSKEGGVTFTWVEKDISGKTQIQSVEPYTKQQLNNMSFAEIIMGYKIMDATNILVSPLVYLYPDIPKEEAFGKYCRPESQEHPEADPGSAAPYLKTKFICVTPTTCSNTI

Regarding `CC(=O)N1CC[C@H]2CC[C@@H](C(=O)N3CCC(C(N)=O)c4cc(-c5ccccc5)ccc43)N2C(=O)[C@@H](NC(=O)c2cc3cc(C(F)(F)P(=O)(O)O)ccc3s2)C1` (stereo partly drawn) [Compound 116, ((2-(((5S,8S,10aR)-3-acetyl-8-(4-carbamoyl-6-phenyl-1,2,3,4-tetrahydroquinoline-1-carbonyl)-6-oxodecahydropyrrolo[1,2-a][1,5]diazocin-5-yl)carbamoyl)benzo[b]thiophen-5-yl)difluoromethyl)phosphonic acid], the IC50 fell in the range of 0.1 to 1 µM in test [1] and 0.3 to 3 µM in test [2].

`CC(=O)N1CC[C@H]2CC[C@@H](C(=O)N(C)c3ccc(C(C)(C)C)cc3)N2C(=O)[C@@H](NC(=O)c2ccc3ccc(C(F)(F)P(=O)(O)O)cc3c2)C1` [Compound 117, ((7-(((5S,8S,10aR)-3-acetyl-8-((4-(tert-butyl)phenyl)(methyl)carbamoyl)-6-oxodecahydropyrrolo[1,2-a][1,5]diazocin-5-yl)carbamoyl)naphthalen-2-yl)difluoromethyl)phosphonic acid]: the IC50 in test [1] is over 10 µM; in test [2], 0.3 to 3 µM.

Consider `CC(=O)N1CC[C@H]2CC[C@@H](C(=O)N(C)c3ccc4nnccc4c3)N2C(=O)[C@@H](NC(=O)c2ccc3ccc(C(F)(F)P(=O)(O)O)cc3n2)C1` [Compound 118, ((2-(((5S,8S,10aR)-3-acetyl-8-(cinnolin-6-yl(methyl)carbamoyl)-6-oxodecahydropyrrolo[1,2-a][1,5]diazocin-5-yl)carbamoyl)quinolin-7-yl)difluoromethyl)phosphonic acid], for which the values for the IC50 in test [1] and in test [2] were over 10 µM and 0.3 to 3 µM, respectively.

In the case of `CC(=O)N1CC[C@H]2CC[C@@H](C(=O)N(C)c3ccc4nnccc4c3)N2C(=O)[C@@H](NC(=O)c2ccc3cnc(C(F)(F)P(=O)(O)O)cc3c2)C1` [Compound 119, ((6-(((5S,8S,10aR)-3-acetyl-8-(cinnolin-6-yl(methyl)carbamoyl)-6-oxodecahydropyrrolo[1,2-a][1,5]diazocin-5-yl)carbamoyl)isoquinolin-3-yl)difluoromethyl)phosphonic acid], the IC50 in test [1] is over 10 µM; in test [2] it was 0.3 to 3 µM.

`CC(=O)N1CC[C@H]2CC[C@@H](C(=O)N(C)c3ccc4nnccc4c3)N2C(=O)[C@@H](NC(=O)c2ccc3ccc(C(F)(F)P(=O)(O)O)nc3c2)C1` [Compound 120, ((7-(((5S,8S,10aR)-3-acetyl-8-(cinnolin-6-yl(methyl)carbamoyl)-6-oxodecahydropyrrolo[1,2-a][1,5]diazocin-5-yl)carbamoyl)quinolin-2-yl)difluoromethyl)phosphonic acid]: the figures for the IC50 in test [1] and in test [2] were over 10 µM and 3 to 30 µM, respectively.

As for `CC(=O)N1CC[C@H]2CC[C@@H](C(=O)Nc3ccc(-c4ccccc4)cc3)N2C(=O)[C@@H](NC(=O)/C=C/c2ccc(C(F)(F)P(=O)(O)O)cc2)C1` [Compound 121, ((4-((E)-3-(((5S,8S,10aR)-8-([1,1′-biphenyl]-4-ylcarbamoyl)-3-acetyl-6-oxodecahydropyrrolo[1,2-a][1,5]diazocin-5-yl)amino)-3-oxoprop-1-en-1-yl)phenyl)difluoromethyl)phosphonic acid], the IC50 was over 10 µM in test [1] and 3 to 30 µM in test [2].

For `CC(=O)N1CC[C@H]2CC[C@@H](C(=O)N3CC(c4cccnc4)C3)N2C(=O)[C@@H](NC(=O)c2cc3cc(C(F)(F)P(=O)(O)O)ccc3s2)C1` [Compound 122, ((2-(((5S,8S,10aR)-3-acetyl-6-oxo-8-(3-(pyridin-3-yl)azetidine-1-carbonyl)decahydropyrrolo[1,2-a][1,5]diazocin-5-yl)carbamoyl)benzo[b]thiophen-5-yl)difluoromethyl)phosphonic acid], the IC50 in test [1] was at most 0.1 µM; in test [2] it was 0.3 to 3 µM.

For `CC(=O)N1CC[C@H]2CC[C@@H](C(=O)N(C)c3ccc(C#N)cc3)N2C(=O)[C@@H](NC(=O)c2cc3cc(C(F)(F)P(=O)(O)O)ccc3s2)C1` [Compound 123, ((2-(((5S,8S,10aR)-3-acetyl-8-((4-cyanophenyl)(methyl)carbamoyl)-6-oxodecahydropyrrolo[1,2-a][1,5]diazocin-5-yl)carbamoyl)benzo[b]thiophen-5-yl)difluoromethyl)phosphonic acid], the values for the IC50 in test [1] and in test [2] were 1 to 10 µM and 3 to 30 µM, respectively.

Regarding `CC(=O)N1CC[C@H]2CC[C@@H](C(=O)N3C[C@H](c4ccccc4)[C@@H](C#N)C3)N2C(=O)[C@@H](NC(=O)c2cc3cc(C(F)(F)P(=O)(O)O)ccc3s2)C1` [Compound 124, ((2-(((5S,8S,10aR)-3-acetyl-8-((3R,4S)-3-cyano-4-phenylpyrrolidine-1-carbonyl)-6-oxodecahydropyrrolo[1,2-a][1,5]diazocin-5-yl)carbamoyl)benzo[b]thiophen-5-yl)difluoromethyl)phosphonic acid], the values for the IC50 in test [1] and in test [2] were 1 to 10 µM and at most 0.3 µM, respectively.

In the case of `CC(=O)N1CC[C@H]2CC[C@@H](C(=O)N(C)c3ccc(OCCN(C)C)cc3)N2C(=O)[C@@H](NC(=O)c2cc3cc(C(F)(F)P(=O)(O)O)ccc3s2)C1` [Compound 125, ((2-(((5S,8S,10aR)-3-acetyl-8-((4-(2-(dimethylamino)ethoxy)phenyl)(methyl)carbamoyl)-6-oxodecahydropyrrolo[1,2-a][1,5]diazocin-5-yl)carbamoyl)benzo[b]thiophen-5-yl)difluoromethyl)phosphonic acid], the IC50 was 1 to 10 µM in test [1] and 0.3 to 3 µM in test [2].

With `CC(=O)N1CC[C@H]2CC[C@@H](C(=O)N3CCC[C@H]3Cc3cccnc3)N2C(=O)[C@@H](NC(=O)c2cc3cc(C(F)(F)P(=O)(O)O)ccc3s2)C1` [Compound 126, ((2-(((5S,8S,10aR)-3-acetyl-6-oxo-8-((S)-2-(pyridin-3-ylmethyl)pyrrolidine-1-carbonyl)decahydropyrrolo[1,2-a][1,5]diazocin-5-yl)carbamoyl)benzo[b]thiophen-5-yl)difluoromethyl)phosphonic acid], the IC50 in test [1] lay in the range of 1 to 10 µM; in test [2] it was 0.3 to 3 µM.

Take `CC(=O)N1CC[C@H]2CC[C@@H](C(=O)NC3COc4ccc(Cl)cc4C3)N2C(=O)[C@@H](NC(=O)c2cc3cc(C(F)(F)P(=O)(O)O)ccc3s2)C1` (stereo partly drawn) [Compound 127, ((2-(((5S,8S,10aR)-3-acetyl-8-((6-chlorochroman-3-yl)carbamoyl)-6-oxodecahydropyrrolo[1,2-a][1,5]diazocin-5-yl)carbamoyl)benzo[b]thiophen-5-yl)difluoromethyl)phosphonic acid]: the IC50 lay within 0.1 to 1 µM in test [1] and 0.3 to 3 µM in test [2].

For `CC(=O)N1CC[C@H]2CC[C@@H](C(=O)N3CC(C(=O)N4CCCCC4)C3)N2C(=O)[C@@H](NC(=O)c2cc3cc(C(F)(F)P(=O)(O)O)ccc3[nH]2)C1` [Compound 128, ((2-(((5S,8S,10aR)-3-acetyl-6-oxo-8-(3-(piperidine-1-carbonyl)azetidine-1-carbonyl)decahydropyrrolo[1,2-a][1,5]diazocin-5-yl)carbamoyl)-1H-indol-5-yl)difluoromethyl)phosphonic acid], the IC50 lay within 0.1 to 1 µM in test [1] and 0.3 to 3 µM in test [2].

`CC(=O)N1CC[C@H]2CC[C@@H](C(=O)N3CCC[C@@H]3Cc3ccccc3)N2C(=O)[C@@H](NC(=O)c2cc3cc(C(F)(F)P(=O)(O)O)ccc3[nH]2)C1` [Compound 129, ((2-(((5S,8S,10aR)-3-acetyl-8-((R)-2-benzylpyrrolidine-1-carbonyl)-6-oxodecahydropyrrolo[1,2-a][1,5]diazocin-5-yl)carbamoyl)-1H-indol-5-yl)difluoromethyl)phosphonic acid]: the IC50 is 1 to 10 µM in test [1] and 0.3 to 3 µM in test [2].

With `CC(=O)N1CC[C@H]2CC[C@@H](C(=O)N3CCCC3Cc3ccc(F)cc3)N2C(=O)[C@@H](NC(=O)c2cc3cc(C(F)(F)P(=O)(O)O)ccc3[nH]2)C1` (stereo partly drawn) [Compound 130, ((2-(((5S,8S,10aR)-3-acetyl-8-(2-(4-fluorobenzyl)pyrrolidine-1-carbonyl)-6-oxodecahydropyrrolo[1,2-a][1,5]diazocin-5-yl)carbamoyl)-1H-indol-5-yl)difluoromethyl)phosphonic acid], the IC50 in test [1] fell in the range of 1 to 10 µM; in test [2], 0.3 to 3 µM.

For `COc1ccc(CC2CCCN2C(=O)[C@@H]2CC[C@@H]3CCN(C(C)=O)C[C@H](NC(=O)c4cc5cc(C(F)(F)P(=O)(O)O)ccc5[nH]4)C(=O)N32)cc1` (stereo partly drawn) [Compound 131, ((2-(((5S,8S,10aR)-3-acetyl-8-(2-(4-methoxybenzyl)pyrrolidine-1-carbonyl)-6-oxodecahydropyrrolo[1,2-a][1,5]diazocin-5-yl)carbamoyl)-1H-indol-5-yl)difluoromethyl)phosphonic acid], the IC50 lay in the range of 1 to 10 µM in test [1] and 0.3 to 3 µM in test [2].
